Data published in patent publication US12336981B2, “Compounds and compositions for the inhibition of NAMPT” (Valo Health, Inc., priority 2010, dated 2025).
Where two headings read alike, the source gives them in different places.

Key:
A2780 cells = assay: In-vitro cell proliferation assay (SRB), A2780 cells; assay type: cell-based; settings: Homo sapiens, A2780, 72 h, A2780 cells, 72 hours, read-out: A2780 IC50
Summary of the method: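 Viable cells measured by SRB staining after 6% TCA fixation, absorbance 570 nm. Media-only background subtracted; % inhibition derived at two compound concentrations.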

NAMPT = target: T1, NAMPT (Homo sapiens, UniProt P43490); assay: Biochemical inhibition assay: NAMPT enzymatic reaction, NMN quantified by mass spectrometry; settings: read-out: Biochem IC50
T1 construct: His tag; host or cells: E. coli
Summary of the method: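 Inhibition of E. coli-expressed His-tagged human NAMPT, measured as NMN formation by mass spectrometry after a 30 min room-temperature reaction containing 1 μM NAM, 100 μM PRPP and 2.5 mM ATP.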

T1 sequence (P43490 whole entry): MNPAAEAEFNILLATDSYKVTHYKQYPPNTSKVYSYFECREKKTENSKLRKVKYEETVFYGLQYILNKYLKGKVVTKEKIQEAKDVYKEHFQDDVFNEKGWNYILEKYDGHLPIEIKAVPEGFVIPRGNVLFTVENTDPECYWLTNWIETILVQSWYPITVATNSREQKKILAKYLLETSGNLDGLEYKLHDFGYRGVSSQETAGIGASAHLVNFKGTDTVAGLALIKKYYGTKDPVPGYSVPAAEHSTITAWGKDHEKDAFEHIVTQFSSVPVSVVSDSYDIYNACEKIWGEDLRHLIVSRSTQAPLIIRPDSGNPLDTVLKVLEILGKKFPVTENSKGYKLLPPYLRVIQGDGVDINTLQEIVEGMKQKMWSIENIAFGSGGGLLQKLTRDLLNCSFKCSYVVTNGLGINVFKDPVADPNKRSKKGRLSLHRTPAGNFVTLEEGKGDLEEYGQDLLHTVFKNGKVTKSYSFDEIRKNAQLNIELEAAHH

SMILES | IC50 (A2780 cells; SRB) [nM] | IC50 (NAMPT; NAMPT enzymatic assay) [nM] | IC50 (A2780 cells; SRB assay) [nM] | IC50 (NAMPT; NAMPT enzymatic reaction) [nM]
COc1ccc2cc(S(=O)(=O)c3ccc(CNC(=O)c4cc5ccncc5s4)cc3)ccc2c1 [N-{[4-(6-methoxynaphthalene-2-sulfonyl)phenyl]methyl}thieno[2,3-c]pyridine-2-carboxamide] | 3.3 | 1.5 | – | –
O=C(NCc1ccc(S(=O)(=O)c2ccc(Cl)cc2)cc1)c1cc2cnccc2[nH]1 [N-({4-[(4-chlorobenzene)sulfonyl]phenyl}methyl)-1H-pyrrolo[3,2-c]pyridine-2-carboxamide] | – | – | 25 | 9
Cn1ncc2c(S(=O)(=O)c3ccc(CNC(=O)c4cnc5nccn5c4)cc3)cccc21 [N-{[4-(1-methyl-1H-indazole-4-sulfonyl)phenyl]methyl}imidazo[1,2-a]pyrimidine-6-carboxamide] | 10.3 | 4.2 | – | –
O=C(NCc1ccc(S(=O)(=O)Nc2cccc3cccnc23)cc1)c1cc2cnccc2[nH]1 [N-({4-[(quinolin-8-yl)sulfamoyl]phenyl}methyl)-1H-pyrrolo[3,2-c]pyridine-2-carboxamide] | – | – | 1480 | 75
Cc1ccc(F)cc1S(=O)(=O)c1ccc(CNC(=O)c2cc3ccncc3o2)cc1 | 24.9 | – | – | 14.3
O=C(NCc1ccc(S(=O)(=O)c2ccccc2OC(F)(F)F)cc1)c1cc2ccncc2o1 | 14.6 | 8.6 | – | –
O=C(NCc1ccc(S(=O)(=O)c2cc(F)cc(C(F)(F)F)c2)cc1)c1cc2ccncc2s1 [N-[(4-{[3-fluoro-5-(trifluoromethyl)benzene]sulfonyl}phenyl)methyl]thieno[2,3-c]pyridine-2-carboxamide] | 3.1 | 10.2 | – | –
COc1ccc(S(=O)(=O)c2ccc(CNC(=O)c3cc4ccncc4o3)cc2)c(C)c1 [N-({4-[(4-methoxy-2-methylbenzene)sulfonyl]phenyl}methyl)furo[2,3-c]pyridine-2-carboxamide] | 35.1 | – | – | 21.6
Cn1cc2ccc(S(=O)(=O)c3ccc(CNC(=O)c4cc5ccncc5s4)cc3)cc2n1 [N-{[4-(2-methyl-2H-indazole-6-sulfonyl)phenyl]methyl}thieno[2,3-c]pyridine-2-carboxamide] | 1.5 | 1.4 | – | –
O=C(NCc1ccc(S(=O)(=O)c2cc(C(F)(F)F)ccn2)cc1)c1cnc2[nH]ncc2c1 [N-({4-[4-(trifluoromethyl)pyridine-2-sulfonyl]phenyl}methyl)-1H-pyrazolo[3,4-b]pyridine-5-carboxamide] | 11.8 | 28.3 | – | –
O=C(NCc1ccc(S(=O)(=O)c2cccc(-c3ccc(F)c(F)c3)n2)cc1)c1ccc2nccn2c1 [N-({4-[6-(3,4-difluorophenyl)pyridine-2-sulfonyl]phenyl}methyl)imidazo[1,2-a]pyridine-6-carboxamide] | 5.7 | 4.3 | – | –
CC(C)Oc1cccc(S(=O)(=O)c2ccc(CNC(=O)c3cnc4nccn4c3)cc2)c1 | 10.5 | 2.3 | – | –
COc1ccc(S(=O)(=O)c2ccc(CNC(=O)c3ccc4nccn4c3)cc2)cc1C [N-({4-[(4-methoxy-3-methylbenzene)sulfonyl]phenyl}methyl)imidazo[1,2-a]pyridine-6-carboxamide] | 5.32 | – | – | 14.1
COc1cc(F)ccc1S(=O)(=O)c1ccc(CNC(=O)c2cnc3[nH]ncc3c2)cc1 [N-({4-[(4-fluoro-2-methoxybenzene)sulfonyl]phenyl}methyl)-1H-pyrazolo[3,4-b]pyridine-5-carboxamide] | 74.2 | – | – | 159
O=C(NCc1ccc(S(=O)(=O)c2cc(F)ccc2CO)cc1)c1cc2cnccc2[nH]1 | 67.5 | 16.9 | – | –
O=C(NCc1ccc(S(=O)(=O)c2c(Cl)cccc2Cl)cc1)c1cc2ccncc2o1 | 60.1 | – | – | 12.4
Cc1cc(Cl)cc(S(=O)(=O)c2ccc(CNC(=O)c3cnc4nccn4c3)cc2)c1 | 2.3 | – | – | 4.8
O=C(NCc1ccc(S(=O)(=O)c2cccc(F)c2)cc1)c1cc2ccncc2s1 [N-({4-[(3-fluorobenzene)sulfonyl]phenyl}methyl)thieno[2,3-c]pyridine-2-carboxamide] | – | – | 3.3 | 3
Cc1ccc(F)cc1S(=O)(=O)c1ccc(CNC(=O)c2ccc3nccn3c2)cc1 [N-({4-[(5-fluoro-2-methylbenzene)sulfonyl]phenyl}methyl)imidazo[1,2-a]pyridine-6-carboxamide] | 22.9 | – | – | 12.6
O=C(NCc1ccc(S(=O)(=O)c2cc(F)cc(OCC(F)(F)F)c2)cc1)c1cc2ccncc2o1 [N-[(4-{[3-fluoro-5-(2,2,2-trifluoroethoxy)benzene]sulfonyl}phenyl)methyl]furo[2,3-c]pyridine-2-carboxamide] | 6.1 | 7.4 | – | –
CCCCOc1cccc(S(=O)(=O)c2ccc(CNC(=O)c3cc4ccncc4s3)cc2)c1 | 38.7 | – | – | 3.3
O=C(NCc1ccc(S(=O)(=O)c2ccc(F)c(F)c2)cc1)c1cc2ccncc2s1 [N-({4-[(3,4-difluorobenzene)sulfonyl]phenyl}methyl)thieno[2,3-c]pyridine-2-carboxamide] | – | – | 8.1 | 9

SMILES | IC50 (A2780 cells; SRB) [nM] | IC50 (NAMPT; NAMPT enzymatic assay) [nM] | IC50 (A2780 cells; SRB assay) [nM] | IC50 (NAMPT; NAMPT enzymatic reaction) [nM]
O=C(NCc1ccc(S(=O)(=O)Nc2ccccc2Oc2ccccc2)cc1)c1cc2cnccc2[nH]1 [N-({4-[(2-phenoxyphenyl)sulfamoyl]phenyl}methyl)-1H-pyrrolo[3,2-c]pyridine-2-carboxamide] | – | – | 12000 | 4020
Cc1ccc(Cl)c(S(=O)(=O)c2ccc(CNC(=O)c3cc4cnccc4[nH]3)cc2)c1F | 7.1 | 6.5 | – | –
CCOc1cccc(S(=O)(=O)c2ccc(CNC(=O)c3cnc4[nH]ncc4c3)cc2)c1 | 19 | – | – | 14.6
O=C(NCc1ccc(S(=O)(=O)CCCc2ccccc2)cc1)c1cc2cnccc2[nH]1 [N-({4-[(3-phenylpropane)sulfonyl]phenyl}methyl)-1H-pyrrolo[3,2-c]pyridine-2-carboxamide] | 78 | – | – | 14
O=C(NCc1ccc(S(=O)(=O)c2cncc3ccccc23)cc1)c1cnc2[nH]ncc2c1 [N-{[4-(isoquinoline-4-sulfonyl)phenyl]methyl}-1H-pyrazolo[3,4-b]pyridine-5-carboxamide] | 2.5 | 3.7 | – | –
CCS(=O)(=O)c1cccc(S(=O)(=O)c2ccc(CNC(=O)c3cc4cnccc4[nH]3)cc2)c1 [N-[(4-{[3-(ethanesulfonyl)benzene]sulfonyl}phenyl)methyl]-1H-pyrrolo[3,2-c]pyridine-2-carboxamide] | 15.5 | 17 | – | –
O=C(NCc1ccc(S(=O)(=O)c2cccc(N3CCOCC3)c2)cc1)c1cnc2[nH]ncc2c1 | 13 | 16.7 | – | –
Cc1cc(C)n(-c2cccc(S(=O)(=O)c3ccc(CNC(=O)c4cnc5[nH]ncc5c4)cc3)c2)n1 | 5.3 | 25.3 | – | –
O=C(NCc1ccc(S(=O)(=O)c2ccccc2)cc1)c1nc2cnccc2[nH]1 [N-{[4-(benzenesulfonyl)phenyl]methyl}-1H-imidazo[4,5-c]pyridine-2-carboxamide] | – | – | 5370 | 7060
O=C(NCc1ccc(S(=O)(=O)N2CCCCC2)cc1)c1ccc2[nH]ncc2c1 [N-{[4-(piperidine-1-sulfonyl)phenyl]methyl}-1H-indazole-5-carboxamide] | – | – | 16 | 18
CC(C)NC(=O)c1cc(S(=O)(=O)c2ccc(CNC(=O)c3cnc4nccn4c3)cc2)ccc1F | 85.4 | 7.7 | – | –
O=C(NCc1ccc(S(=O)(=O)c2ccc(C(F)(F)F)cn2)cc1)c1cnc2[nH]ncc2c1 [N-({4-[5-(trifluoromethyl)pyridine-2-sulfonyl]phenyl}methyl)-1H-pyrazolo[3,4-b]pyridine-5-carboxamide] | 100 to 1000 | 100 to 1000 | – | –
O=C(NCc1ccc(S(=O)(=O)c2cnc3n2CCCCC3)cc1)c1cnc2[nH]ncc2c1 [N-[(4-{5H,6H,7H,8H,9H-imidazo[1,2-a]azepine-3-sulfonyl}phenyl)methyl]-1H-pyrazolo[3,4-b]pyridine-5-carboxamide] | 12.3 | 31.6 | – | –
O=C(NCc1ccc(S(=O)(=O)c2cccc(C(F)(F)F)n2)cc1)c1cc2ccncc2o1 [N-({4-[6-(trifluoromethyl)pyridine-2-sulfonyl]phenyl}methyl)furo[2,3-c]pyridine-2-carboxamide] | 3.1 | 5 | – | –
COc1cc(S(=O)(=O)c2ccc(CNC(=O)c3cc4ccncc4s3)cc2)ccc1C | 1.5 | – | – | 2.7
O=C(NCc1ccc(S(=O)(=O)c2ccc(-n3cccn3)c(F)c2)cc1)c1cc2ccncc2o1 | 5 | 17.3 | – | –
O=C(NCc1ccc(S(=O)(=O)c2ccc(C(F)(F)F)cc2F)cc1)c1ccc2nccn2c1 | 15.7 | 15.6 | – | –
NS(=O)(=O)c1cccc(S(=O)(=O)c2ccc(CNC(=O)c3cnc4[nH]ncc4c3)cc2)c1 [N-({4-[(3-sulfamoylbenzene)sulfonyl]phenyl}methyl)-1H-pyrazolo[3,4-b]pyridine-5-carboxamide] | 100 to 1000 | – | – | 30.1
O=C(NCc1ccc(S(=O)(=O)c2cc(F)ccc2Cl)cc1)c1cc2ccncc2o1 | 24.8 | – | – | 16.3
CS(=O)(=O)c1ccc(S(=O)(=O)c2ccc(CNC(=O)c3ccc4nccn4c3)cc2)cc1 [N-({4-[(4-methanesulfonylbenzene)sulfonyl]phenyl}methyl)imidazo[1,2-a]pyridine-6-carboxamide] | 24.7 | – | – | 105
Cc1ccc(S(=O)(=O)c2ccc(CNC(=O)c3cc4ccncc4s3)cc2)cc1C [N-({4-[(3,4-dimethylbenzene)sulfonyl]phenyl}methyl)thieno[2,3-c]pyridine-2-carboxamide] | – | – | 2.3 | 6
